Measurements as given in patent US20260184713A1, “KINASE INHIBITORS” (The United States of America, as represented by the …, priority 2022, published 2026).
Where two headings read alike, the source gives them in different places.

Experiments:
Assay in all cases: HOTSPOT radiometric kinase assay
PKCθ = biological target: T1, PKCθ (Homo sapiens, UniProt Q04759); type: biochemical; settings: 2 μM, 10 μM ATP
T1 construct: purchased Reaction Biology Corp

LATS1 = biological target: T2, LATS1 (Homo sapiens, UniProt O95835); type: biochemical; settings: 10 μM ATP
T2 construct: purchased Reaction Biology Corp
T2 sequence (O95835 1-1130): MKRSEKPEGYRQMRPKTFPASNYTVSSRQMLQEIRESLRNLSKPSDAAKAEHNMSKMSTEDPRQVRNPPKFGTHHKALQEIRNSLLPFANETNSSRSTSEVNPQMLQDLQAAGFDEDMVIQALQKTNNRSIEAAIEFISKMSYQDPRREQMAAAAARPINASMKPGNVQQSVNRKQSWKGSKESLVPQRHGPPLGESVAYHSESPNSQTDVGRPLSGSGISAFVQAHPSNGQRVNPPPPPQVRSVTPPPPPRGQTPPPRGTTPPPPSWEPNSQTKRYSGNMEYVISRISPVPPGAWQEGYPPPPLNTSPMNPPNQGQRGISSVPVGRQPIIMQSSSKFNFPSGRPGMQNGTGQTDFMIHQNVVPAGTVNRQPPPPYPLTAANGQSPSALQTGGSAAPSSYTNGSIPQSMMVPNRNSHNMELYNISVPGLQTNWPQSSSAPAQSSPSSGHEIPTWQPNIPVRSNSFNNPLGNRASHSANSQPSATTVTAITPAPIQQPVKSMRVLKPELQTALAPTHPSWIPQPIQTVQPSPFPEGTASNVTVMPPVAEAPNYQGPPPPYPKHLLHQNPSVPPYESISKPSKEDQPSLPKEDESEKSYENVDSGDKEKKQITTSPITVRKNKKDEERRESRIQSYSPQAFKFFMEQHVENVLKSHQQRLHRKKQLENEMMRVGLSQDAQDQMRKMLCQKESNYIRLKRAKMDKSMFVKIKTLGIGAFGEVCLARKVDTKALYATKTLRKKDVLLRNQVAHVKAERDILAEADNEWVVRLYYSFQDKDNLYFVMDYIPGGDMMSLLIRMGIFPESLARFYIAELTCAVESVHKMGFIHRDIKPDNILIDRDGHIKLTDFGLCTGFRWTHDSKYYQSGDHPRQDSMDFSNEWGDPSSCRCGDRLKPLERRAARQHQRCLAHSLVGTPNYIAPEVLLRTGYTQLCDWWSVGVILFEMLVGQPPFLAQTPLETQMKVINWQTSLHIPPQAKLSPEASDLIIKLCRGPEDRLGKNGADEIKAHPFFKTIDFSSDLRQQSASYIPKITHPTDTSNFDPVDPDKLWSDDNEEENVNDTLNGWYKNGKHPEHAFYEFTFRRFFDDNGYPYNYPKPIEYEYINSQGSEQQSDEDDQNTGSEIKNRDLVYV

PKCε = biological target: T3, PKCε (Homo sapiens, UniProt Q02156); type: biochemical; settings: 10 μM ATP
T3 construct: purchased Reaction Biology Corp

STK33 = biological target: T4, STK33 (Homo sapiens, UniProt Q9BYT3); type: biochemical; settings: 10 μM ATP
T4 construct: purchased Reaction Biology Corp

DYRK1B = DYRK1B (Homo sapiens, UniProt Q9Y463); type: biochemical
FLT3 = biological target: T5, FLT3 (Homo sapiens, UniProt P36888); type: biochemical
T5 construct: purchased Reaction Biology Corp

MPSK1 = biological target: T6, MPSK1 (Homo sapiens, UniProt O75716); type: biochemical; settings: 10 μM ATP
T6 construct: purchased Reaction Biology Corp

PKN3 = biological target: T7, PKN3 (Homo sapiens, UniProt Q6P5Z2); type: biochemical; settings: 10 μM ATP
T7 construct: purchased Reaction Biology Corp

BMX = biological target: T8, BMX (Homo sapiens, UniProt P51813); type: biochemical; settings: 10 μM ATP
T8 construct: purchased Reaction Biology Corp

CDK9 = biological target: T9, CDK9 (Homo sapiens, UniProt P50750); type: biochemical; settings: 50 nM, 10 μM ATP
T9 construct: purchased Reaction Biology Corp

RSK2 = biological target: T10, RSK2 (Homo sapiens, UniProt P51812); type: biochemical; settings: 10 μM ATP
T10 construct: purchased Reaction Biology Corp

AKT1 = AKT1 (Homo sapiens, UniProt P31749)
MAP2K1 (MEK1) = MAP2K1 (MEK1) (Homo sapiens, UniProt Q02750)
ERBB2/HER2 = ERBB2/HER2 (Homo sapiens, UniProt P04626)
ERK1 = ERK1 (Homo sapiens, UniProt P27361)
GSK3β = GSK3β (Homo sapiens, UniProt P49841)
GSK3β, sequence (P49841 whole entry): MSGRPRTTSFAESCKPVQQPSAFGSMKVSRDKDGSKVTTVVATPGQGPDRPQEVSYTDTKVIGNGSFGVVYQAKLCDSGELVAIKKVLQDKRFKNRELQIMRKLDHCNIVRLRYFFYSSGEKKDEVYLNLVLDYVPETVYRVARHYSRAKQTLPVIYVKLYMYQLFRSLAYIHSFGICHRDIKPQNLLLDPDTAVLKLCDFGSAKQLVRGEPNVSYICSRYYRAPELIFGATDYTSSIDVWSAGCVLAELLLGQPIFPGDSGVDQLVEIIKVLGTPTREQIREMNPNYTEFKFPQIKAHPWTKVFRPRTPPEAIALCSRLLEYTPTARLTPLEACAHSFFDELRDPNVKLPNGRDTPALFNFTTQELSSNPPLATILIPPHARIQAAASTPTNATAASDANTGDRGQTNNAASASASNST

AKT1, sequence (P31749 whole entry): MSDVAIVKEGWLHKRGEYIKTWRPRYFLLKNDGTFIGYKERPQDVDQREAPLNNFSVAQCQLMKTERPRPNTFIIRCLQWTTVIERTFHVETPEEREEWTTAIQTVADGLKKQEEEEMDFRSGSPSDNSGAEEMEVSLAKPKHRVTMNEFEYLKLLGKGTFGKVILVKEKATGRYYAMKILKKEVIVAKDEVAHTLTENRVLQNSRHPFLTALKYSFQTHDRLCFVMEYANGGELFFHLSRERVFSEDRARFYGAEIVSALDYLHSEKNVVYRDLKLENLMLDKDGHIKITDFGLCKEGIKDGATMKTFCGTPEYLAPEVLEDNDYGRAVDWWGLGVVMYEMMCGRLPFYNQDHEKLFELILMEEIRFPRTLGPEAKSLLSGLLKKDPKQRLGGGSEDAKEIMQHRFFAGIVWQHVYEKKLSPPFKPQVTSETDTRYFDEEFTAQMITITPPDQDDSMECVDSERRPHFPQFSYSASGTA
DYRK1B, sequence (Q9Y463 whole entry): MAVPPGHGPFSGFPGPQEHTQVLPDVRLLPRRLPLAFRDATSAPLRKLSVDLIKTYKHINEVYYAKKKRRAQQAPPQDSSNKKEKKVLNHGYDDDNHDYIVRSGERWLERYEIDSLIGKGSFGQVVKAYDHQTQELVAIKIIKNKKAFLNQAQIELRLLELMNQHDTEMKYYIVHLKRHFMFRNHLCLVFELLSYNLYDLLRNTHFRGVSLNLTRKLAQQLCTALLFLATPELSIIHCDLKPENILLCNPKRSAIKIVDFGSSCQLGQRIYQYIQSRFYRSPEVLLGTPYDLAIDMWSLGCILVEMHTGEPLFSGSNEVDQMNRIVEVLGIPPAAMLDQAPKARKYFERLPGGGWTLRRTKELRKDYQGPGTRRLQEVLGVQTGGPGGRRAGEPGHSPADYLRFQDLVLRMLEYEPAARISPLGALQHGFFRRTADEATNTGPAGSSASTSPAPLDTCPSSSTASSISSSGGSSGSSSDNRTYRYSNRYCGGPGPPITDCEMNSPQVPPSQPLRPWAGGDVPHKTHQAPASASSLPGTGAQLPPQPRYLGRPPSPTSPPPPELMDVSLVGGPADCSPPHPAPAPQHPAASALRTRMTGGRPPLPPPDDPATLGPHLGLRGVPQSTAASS
ERK1, sequence (P27361 whole entry): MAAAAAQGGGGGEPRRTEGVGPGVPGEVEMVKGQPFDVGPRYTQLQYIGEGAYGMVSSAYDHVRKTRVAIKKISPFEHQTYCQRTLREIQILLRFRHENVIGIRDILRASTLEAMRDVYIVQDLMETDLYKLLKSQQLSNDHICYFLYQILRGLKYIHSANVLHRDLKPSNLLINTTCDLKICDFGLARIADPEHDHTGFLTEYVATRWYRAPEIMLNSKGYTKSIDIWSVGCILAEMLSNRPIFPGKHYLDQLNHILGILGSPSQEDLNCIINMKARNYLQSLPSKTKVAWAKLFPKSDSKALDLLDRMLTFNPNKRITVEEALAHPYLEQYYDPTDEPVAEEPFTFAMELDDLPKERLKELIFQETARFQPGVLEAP
T8 sequence (P51813 whole entry): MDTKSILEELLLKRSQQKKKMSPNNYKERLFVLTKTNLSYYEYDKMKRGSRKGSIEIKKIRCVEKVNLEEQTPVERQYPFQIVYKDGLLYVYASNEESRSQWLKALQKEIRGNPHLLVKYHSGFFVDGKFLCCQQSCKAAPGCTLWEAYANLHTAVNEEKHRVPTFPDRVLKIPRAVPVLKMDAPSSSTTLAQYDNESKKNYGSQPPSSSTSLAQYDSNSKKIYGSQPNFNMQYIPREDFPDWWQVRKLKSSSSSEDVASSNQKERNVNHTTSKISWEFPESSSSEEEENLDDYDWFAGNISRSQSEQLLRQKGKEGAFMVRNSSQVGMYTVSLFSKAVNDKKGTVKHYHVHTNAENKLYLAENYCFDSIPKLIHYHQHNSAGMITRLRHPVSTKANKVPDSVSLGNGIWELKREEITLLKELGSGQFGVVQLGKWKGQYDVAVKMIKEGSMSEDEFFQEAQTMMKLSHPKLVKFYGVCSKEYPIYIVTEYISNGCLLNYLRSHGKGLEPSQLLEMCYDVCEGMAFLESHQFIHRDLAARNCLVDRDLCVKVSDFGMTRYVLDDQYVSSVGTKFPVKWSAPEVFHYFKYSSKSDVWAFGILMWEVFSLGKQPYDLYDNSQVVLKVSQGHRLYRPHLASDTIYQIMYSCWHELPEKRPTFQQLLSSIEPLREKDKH
T4 sequence (Q9BYT3 whole entry): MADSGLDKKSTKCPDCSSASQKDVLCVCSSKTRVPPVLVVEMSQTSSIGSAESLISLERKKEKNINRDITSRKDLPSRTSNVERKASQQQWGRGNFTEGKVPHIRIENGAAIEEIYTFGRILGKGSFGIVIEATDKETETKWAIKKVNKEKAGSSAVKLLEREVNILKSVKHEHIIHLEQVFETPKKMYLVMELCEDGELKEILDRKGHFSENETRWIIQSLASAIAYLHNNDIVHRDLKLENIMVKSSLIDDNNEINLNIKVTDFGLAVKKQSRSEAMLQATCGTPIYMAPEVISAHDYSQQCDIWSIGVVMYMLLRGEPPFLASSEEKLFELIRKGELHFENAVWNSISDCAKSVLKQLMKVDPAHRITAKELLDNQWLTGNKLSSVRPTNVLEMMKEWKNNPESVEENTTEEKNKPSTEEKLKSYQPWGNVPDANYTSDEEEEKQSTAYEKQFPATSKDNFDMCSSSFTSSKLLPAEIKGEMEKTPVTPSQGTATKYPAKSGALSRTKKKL
T5 sequence (P36888 27-993): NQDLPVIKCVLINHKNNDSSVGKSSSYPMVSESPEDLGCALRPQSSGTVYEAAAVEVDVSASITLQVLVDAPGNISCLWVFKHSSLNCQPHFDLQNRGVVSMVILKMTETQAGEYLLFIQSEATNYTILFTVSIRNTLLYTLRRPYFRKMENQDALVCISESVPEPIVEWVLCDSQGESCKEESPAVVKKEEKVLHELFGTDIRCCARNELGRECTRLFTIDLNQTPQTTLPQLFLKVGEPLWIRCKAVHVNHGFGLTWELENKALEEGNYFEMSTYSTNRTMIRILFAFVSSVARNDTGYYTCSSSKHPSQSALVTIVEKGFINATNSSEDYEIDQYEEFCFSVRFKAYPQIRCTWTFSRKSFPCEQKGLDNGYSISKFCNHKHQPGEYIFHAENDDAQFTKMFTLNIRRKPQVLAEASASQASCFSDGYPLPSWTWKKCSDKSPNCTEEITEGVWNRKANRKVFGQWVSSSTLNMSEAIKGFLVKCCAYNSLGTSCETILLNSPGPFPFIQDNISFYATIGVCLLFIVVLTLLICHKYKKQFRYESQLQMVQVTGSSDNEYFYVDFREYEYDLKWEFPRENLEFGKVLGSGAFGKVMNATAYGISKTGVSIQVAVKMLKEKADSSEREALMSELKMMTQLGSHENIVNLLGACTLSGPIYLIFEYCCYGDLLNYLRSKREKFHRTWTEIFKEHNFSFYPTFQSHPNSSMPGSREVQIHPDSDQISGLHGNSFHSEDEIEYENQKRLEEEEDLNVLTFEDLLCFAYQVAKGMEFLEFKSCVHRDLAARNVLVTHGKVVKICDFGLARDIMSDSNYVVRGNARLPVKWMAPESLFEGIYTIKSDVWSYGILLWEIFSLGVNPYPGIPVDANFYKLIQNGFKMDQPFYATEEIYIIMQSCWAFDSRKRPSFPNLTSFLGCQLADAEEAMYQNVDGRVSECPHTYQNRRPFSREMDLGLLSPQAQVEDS
T3 sequence (Q02156 whole entry): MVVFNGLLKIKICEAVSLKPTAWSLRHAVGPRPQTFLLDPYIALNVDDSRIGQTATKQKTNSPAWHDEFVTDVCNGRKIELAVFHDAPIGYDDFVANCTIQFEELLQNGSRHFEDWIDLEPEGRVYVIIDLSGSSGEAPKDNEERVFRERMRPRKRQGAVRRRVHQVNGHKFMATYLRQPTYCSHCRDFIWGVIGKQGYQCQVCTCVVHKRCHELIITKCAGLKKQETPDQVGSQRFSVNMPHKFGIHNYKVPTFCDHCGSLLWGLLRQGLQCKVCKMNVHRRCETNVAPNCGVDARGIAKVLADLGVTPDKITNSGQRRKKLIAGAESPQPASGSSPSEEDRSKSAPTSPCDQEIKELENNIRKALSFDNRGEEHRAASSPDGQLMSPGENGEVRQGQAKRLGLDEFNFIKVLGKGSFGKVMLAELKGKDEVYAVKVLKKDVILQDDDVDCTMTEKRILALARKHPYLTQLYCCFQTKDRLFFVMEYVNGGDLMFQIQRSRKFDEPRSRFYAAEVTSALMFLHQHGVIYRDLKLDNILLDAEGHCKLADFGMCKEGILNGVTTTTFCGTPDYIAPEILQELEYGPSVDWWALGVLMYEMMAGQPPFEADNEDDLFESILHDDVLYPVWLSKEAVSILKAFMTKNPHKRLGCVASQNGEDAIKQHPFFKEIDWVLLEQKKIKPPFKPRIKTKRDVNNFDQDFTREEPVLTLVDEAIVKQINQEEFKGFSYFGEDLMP

## Cn1cncc1C1=CN(c2ncnc3nc[nH]c23)CCS1 [Compound 1, Aplithianine A]
PKCθ
  inhibition at 2 µM: 97.9%
LATS1; 50 nM
  inhibition at 0.05 µM: 35%
LATS1; 2 μM
  inhibition at 2 µM: 96.1%
PKCε; 50 nM
  inhibition at 0.05 µM: 25.8%
PKCε; 2 μM
  inhibition at 2 µM: 92.7%
STK33; 50 nM
  inhibition at 0.05 µM: 23.6%
STK33; 2 μM
  inhibition at 2 µM: 80.5%
DYRK1B; 50 nM, 10 μM ATP
  inhibition at 0.05 µM: 22.7%
DYRK1B; 2 μM, 10 μM ATP
  inhibition at 2 µM: 95.3%
DYRK1B; 10 μM ATP, read-out: DYRK1B IC50
  IC50: 134 nM
DYRK1B; IC50 (kinase)/IC50 (PKG1a)
  DYRK1B Differential (as compared to PKG1a): 11.87
DYRK1B; Table 4 dose-response, read-out: DYRK1B IC50 Values
  IC50: 135 nM
FLT3; 50 nM, 10 μM ATP
  inhibition at 0.05 µM: 22.2%
FLT3; read-out: FLT3 % inhibition
  inhibition at 2 µM: 88.1%
MPSK1; 50 nM
  inhibition at 0.05 µM: 22%
MPSK1; 2 μM
  inhibition at 2 µM: 49.5%
PKN3; 50 nM
  inhibition at 0.05 µM: 18.6%
PKN3; 2 μM
  inhibition at 2 µM: 80.4%
BMX; 50 nM
  inhibition at 0.05 µM: 13.9%
BMX; 2 μM
  inhibition at 2 µM: 40%
CDK9
  inhibition at 0.05 µM: 12.4%
RSK2; 50 nM
  inhibition at 0.05 µM: 12.3%
RSK2; 2 μM
  inhibition at 2 µM: 66%
AKT1
  IC50: 43 to 189 nM
AKT1; read-out: AKT1 % inhibition
  inhibition at 0.05 µM: 25.1%
  inhibition at 2 µM: 83.7%
AKT1; read-out: AKT1 IC50, 10 μM ATP
  IC50: 179 nM
MAP2K1 (MEK1)
  IC50: 18 to 65 µM
MAP2K1 (MEK1); read-out: MAP2K1 / MEK1 IC50, 10 μM ATP
  IC50: 23.6 µM
ERBB2/HER2
  IC50: 18 to 65 µM
ERBB2/HER2; read-out: ERBB2/HER2 IC50, 10 μM ATP
  IC50: 26.4 µM
ERK1
  IC50: 0.8 to 6.6 µM
ERK1; read-out: ERK1 IC50, 10 μM ATP
  IC50: 5.71 µM
GSK3β
  IC50: 43 to 189 nM
GSK3β; read-out: GSK3β IC50, 10 μM ATP
  IC50: 99 nM
